Reference: PubChem BioAssay AID1963837 (Molecular Pharmacology Branch, DTP, NCI, 2024)

Test system: 843126-344-R-J1-PDC complex spheroid viability
Test: Anticancer human tumor 843126-344-R-J1-PDC patient-derived melanoma cell line growth inhibition [POLQ]
Settings: for IC50: curve of first compound; for viability, T/C: stronger effect = lower value
Procedure, shortened: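 Three-cell-type spheroids modelling solid tumor plus stroma served as the readout system; POL inhibitors were tested individually and in combination, concentration ranges set by clinical Cmax where known.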

[1] = second compound 0.0316 µM, first compound 0.0316 µM
[2] = second compound 0.0316 µM, first compound 0.1 µM
[3] = second compound 0.0316 µM, first compound 0.316 µM
[4] = second compound 0.0316 µM, first compound 1 µM
[5] = second compound 0.0316 µM, first compound 3.16 µM
[6] = second compound 0.0316 µM, first compound 10 µM
[7] = second compound 0.1 µM, first compound 0.0316 µM
[8] = second compound 0.1 µM, first compound 0.1 µM
[9] = second compound 0.1 µM, first compound 0.316 µM
[10] = second compound 0.1 µM, first compound 1 µM
[11] = second compound 0.1 µM, first compound 3.16 µM
[12] = second compound 0.1 µM, first compound 10 µM
[13] = second compound 0.316 µM, first compound 0.0316 µM
[14] = second compound 0.316 µM, first compound 0.1 µM
[15] = second compound 0.316 µM, first compound 0.316 µM
[16] = second compound 0.316 µM, first compound 1 µM
[17] = second compound 0.316 µM, first compound 3.16 µM
[18] = second compound 0.316 µM, first compound 10 µM
[19] = second compound 1 µM, first compound 0.0316 µM
[20] = second compound 1 µM, first compound 0.1 µM
[21] = second compound 1 µM, first compound 0.316 µM
[22] = second compound 1 µM, first compound 1 µM
[23] = second compound 1 µM, first compound 3.16 µM
[24] = second compound 1 µM, first compound 10 µM
[25] = second compound 3.16 µM, first compound 0.0316 µM
[26] = second compound 3.16 µM, first compound 0.1 µM
[27] = second compound 3.16 µM, first compound 0.316 µM
[28] = second compound 3.16 µM, first compound 1 µM
[29] = second compound 3.16 µM, first compound 3.16 µM
[30] = second compound 3.16 µM, first compound 10 µM
[31] = second compound 10 µM, first compound 0.0316 µM
[32] = second compound 10 µM, first compound 0.1 µM
[33] = second compound 10 µM, first compound 0.316 µM
[34] = second compound 10 µM, first compound 1 µM
[35] = second compound 10 µM, first compound 3.16 µM
[36] = second compound 10 µM, first compound 10 µM
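Throughout, for viability, T/C: spheroids exposed to drugs for seven days before readout.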

For `CCCS(=O)(=O)Nc1ccc(F)c(C(=O)c2c[nH]c3ncc(-c4ccc(Cl)cc4)cc23)c1F` + COC1C(OC(N)=O)C(O)C(Oc2ccc3c(O)c(NC(=O)c4ccc(O)c(CC=C(C)C)c4)c(=O)oc3c2C)OC1(C)C, the IC50 (second compound 0.0316 µM) was > 10000 nM, the IC50 (second compound 0.1 µM) was > 10000 nM and the IC50 (second compound 0.316 µM) was > 10000 nM. For the same molecule, the IC50 (second compound 1 µM) was > 10000 nM, the IC50 (second compound 3.16 µM) was > 10000 nM and the IC50 (second compound 10 µM) was > 10000 nM. It also gave a viability, T/C [1] of 88.8%, a viability, T/C [2] of 87.5% and a viability, T/C [3] of 62.7%. For the same molecule, the viability, T/C [4] was 72.9%, the viability, T/C [5] was 75.6% and the viability, T/C [6] was 60%. It also gave a viability, T/C [7] of 77.5%, a viability, T/C [8] of 81.7% and a viability, T/C [9] of 84.5%. The viability, T/C [10] was 64.5%, the viability, T/C [11] was 72.5% and the viability, T/C [12] was 72.5%. It also gave a viability, T/C [13] of 78.5%, a viability, T/C [14] of 97.1% and a viability, T/C [15] of 86.3%. It also gave a viability, T/C [16] of 70.5%, a viability, T/C [17] of 71.7% and a viability, T/C [18] of 70.8%. For the same molecule, the viability, T/C [19] was 82.2%, the viability, T/C [20] was 98.2% and the viability, T/C [21] was 80.4%. For the same molecule, the viability, T/C [22] was 87.6%, the viability, T/C [23] was 65.5% and the viability, T/C [24] was 65%. The viability, T/C [25] was 92.1%, the viability, T/C [26] was 77.9% and the viability, T/C [27] was 91.2%. For the same molecule, the viability, T/C [28] was 72.6%, the viability, T/C [29] was 77.9% and the viability, T/C [30] was 77.2%. The viability, T/C [31] was 83.2%, the viability, T/C [32] was 106% and the viability, T/C [33] was 83.2%. For the same molecule, the viability, T/C [34] was 75.2%, the viability, T/C [35] was 75.3% and the viability, T/C [36] was 64.3%.

Molecule `COc1cccc2c1C(=O)c1c(O)c3c(c(O)c1C2=O)CC(O)(C(=O)CO)CC3OC1CC(N)C(O)C(C)O1` (stereo unspecified) + Nc1ccc(C#CCN(C(=O)Cc2ncc(C(F)(F)F)cc2C(F)(F)F)c2ccc(F)cc2)nn1 has an IC50 (second compound 0.0316 µM) of 393 nM, an IC50 (second compound 0.1 µM) of 412 nM and an IC50 (second compound 0.316 µM) of 293 nM. It also gave an IC50 (second compound 1 µM) of 348 nM, an IC50 (second compound 3.16 µM) of 290 nM and an IC50 (second compound 10 µM) of 288 nM. It also gave a viability, T/C [1] of 84.7%, a viability, T/C [2] of 84.8% and a viability, T/C [3] of 57.3%. It also gave a viability, T/C [4] of 16.1%, a viability, T/C [5] of 3.95% and a viability, T/C [6] of 2.82%. It also gave a viability, T/C [7] of 94.7%, a viability, T/C [8] of 84.4% and a viability, T/C [9] of 61.3%. It also gave a viability, T/C [10] of 15.7%, a viability, T/C [11] of 3.48% and a viability, T/C [12] of 2.63%. For the same molecule, the viability, T/C [13] was 77.9%, the viability, T/C [14] was 94.6% and the viability, T/C [15] was 47.5%. For the same molecule, the viability, T/C [16] was 12.2%, the viability, T/C [17] was 2.99% and the viability, T/C [18] was 2.71%. For the same molecule, the viability, T/C [19] was 78.5%, the viability, T/C [20] was 79% and the viability, T/C [21] was 52.6%. For the same molecule, the viability, T/C [22] was 14.2%, the viability, T/C [23] was 3.21% and the viability, T/C [24] was 2.34%. The viability, T/C [25] was 82.4%, the viability, T/C [26] was 76.3% and the viability, T/C [27] was 47.8%. For the same molecule, the viability, T/C [28] was 13.9%, the viability, T/C [29] was 3.21% and the viability, T/C [30] was 2.76%. For the same molecule, the viability, T/C [31] was 80.6%, the viability, T/C [32] was 73.4% and the viability, T/C [33] was 48.5%. The viability, T/C [34] was 10.4%, the viability, T/C [35] was 2.78% and the viability, T/C [36] was 2.29%.

In the case of `Cn1ncnc1[C@H]1c2n[nH]c(=O)c3cc(F)cc(c23)N[C@@H]1c1ccc(F)cc1` + Nc1ccc(C#CCN(C(=O)Cc2ncc(C(F)(F)F)cc2C(F)(F)F)c2ccc(F)cc2)nn1, the IC50 (second compound 0.0316 µM) is reported as > 100 nM, the IC50 (second compound 0.1 µM) is reported as > 100 nM and the IC50 (second compound 0.316 µM) is reported as > 100 nM. The IC50 (second compound 1 µM) was > 100 nM, the IC50 (second compound 3.16 µM) was > 100 nM and the IC50 (second compound 10 µM) was > 100 nM. For the same molecule, the viability, T/C (second compound 0.0316 µM, first compound 0.000316 µM) was 87.1%, the viability, T/C (second compound 0.0316 µM, first compound 0.001 µM) was 93.9% and the viability, T/C (second compound 0.0316 µM, first compound 0.00316 µM) was 101%. It also gave a viability, T/C (second compound 0.0316 µM, first compound 0.01 µM) of 93.4%, a viability, T/C [1] of 96.1% and a viability, T/C [2] of 82.6%. The viability, T/C (second compound 0.1 µM, first compound 0.000316 µM) was 89%, the viability, T/C (second compound 0.1 µM, first compound 0.001 µM) was 91.7% and the viability, T/C (second compound 0.1 µM, first compound 0.00316 µM) was 107%. For the same molecule, the viability, T/C (second compound 0.1 µM, first compound 0.01 µM) was 96.2%, the viability, T/C [7] was 99.7% and the viability, T/C [8] was 97.7%. The viability, T/C (second compound 0.316 µM, first compound 0.000316 µM) was 108%, the viability, T/C (second compound 0.316 µM, first compound 0.001 µM) was 93.3% and the viability, T/C (second compound 0.316 µM, first compound 0.00316 µM) was 111%. The viability, T/C (second compound 0.316 µM, first compound 0.01 µM) was 93.2%, the viability, T/C [13] was 99.8% and the viability, T/C [14] was 99.8%. For the same molecule, the viability, T/C (second compound 1 µM, first compound 0.000316 µM) was 97.3%, the viability, T/C (second compound 1 µM, first compound 0.001 µM) was 102% and the viability, T/C (second compound 1 µM, first compound 0.00316 µM) was 87.9%. The viability, T/C (second compound 1 µM, first compound 0.01 µM) was 106%, the viability, T/C [19] was 104% and the viability, T/C [20] was 73.1%. It also gave a viability, T/C (second compound 3.16 µM, first compound 0.000316 µM) of 93.3%, a viability, T/C (second compound 3.16 µM, first compound 0.001 µM) of 102% and a viability, T/C (second compound 3.16 µM, first compound 0.00316 µM) of 88%. It also gave a viability, T/C (second compound 3.16 µM, first compound 0.01 µM) of 95.7%, a viability, T/C [25] of 102% and a viability, T/C [26] of 94.8%. For the same molecule, the viability, T/C (second compound 10 µM, first compound 0.000316 µM) was 101%, the viability, T/C (second compound 10 µM, first compound 0.001 µM) was 83.6% and the viability, T/C (second compound 10 µM, first compound 0.00316 µM) was 97%. The viability, T/C (second compound 10 µM, first compound 0.01 µM) was 89.5%, the viability, T/C [31] was 88.6% and the viability, T/C [32] was 80.2%.
